Data from the supplement of paper PMC4862054.
Several values for one entry are separate records, joined by “and”; a condition that tells them apart may be missing. Equal entries are not always repeated.

Tests used:
Assay in all cases: normalised viability (% of control), CellTiter-Blue; higher = more viable cells (about 100 = DMSO control)
Conditions in all cases: incubation time: 72 h
CAL-148 = test system: CAL-148
How it was run: (§1)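 The reported figure is normalised viability at a single listed concentration of the series. Breast cancer cell lines (20 µl suspension) went onto 384-well plates holding compound in 5 µl medium for 72 h. CellTiter-Blue (2.5 µl, 2 h, 37 °C) was read by fluorescence at 560/590 nm, and each plate was scaled to vehicle at 100 and a positive kill control at 0.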

MDA-MB-436 = test system: MDA-MB-436
How it was run: as §1

BT-474 = test system: BT-474
How it was run: as §1

MDA-MB-231 = test system: MDA-MB-231
How it was run: as §1

Hs578T = test system: Hs578T
How it was run: as §1

HDQ-P1 = test system: HDQ-P1
How it was run: as §1

HCC1599 = test system: HCC1599
How it was run: as §1

MFM-223 = test system: MFM-223
How it was run: as §1

HCC1937 = test system: HCC1937
How it was run: as §1

CAL-85-1 = test system: CAL-85-1
How it was run: as §1

DU-4475 = test system: DU-4475
How it was run: as §1

HCC1143 = test system: HCC1143
How it was run: as §1

O=NN(CCCl)C(=O)NCCCl [Carmustine]
normalised viability [%]
Conditions	3 nM	10 nM	30 nM	100 nM	1000 nM	10000 nM
BT-474	–	124	–	–	98.8	125
CAL-85-1	95.1	–	88.9	96.6	–	–
CAL-148	94.5	–	96.7	97.5	–	–
DU-4475	85.3	–	83.5	93	–	–
HCC1143	–	87.2	–	–	85.4	86.6
HCC1599	–	99	–	–	83.5	84.2
HCC1937	–	95	–	–	93	71.5
HDQ-P1	120	–	128	108	–	–
Hs578T	–	114	–	–	95.3	115
MDA-MB-231	–	103	–	–	99.1	117
MDA-MB-436	–	91.8	–	–	105	87.5
MFM-223	–	93.1	–	–	94.6	103

CC1=C2C[C@H]3[C@@H](CC=C4C[C@@H](O)CC[C@@]43C)[C@@H]2CC[C@]12O[C@@H]1C[C@H](C)CN[C@H]1[C@H]2C [Cyclopamine]
normalised viability [%]
Conditions	3 nM	10 nM	30 nM	100 nM	1000 nM	10000 nM
BT-474	–	135	–	–	114	132
CAL-85-1	104	–	91.9	99.9	–	–
CAL-148	104	–	117	110	–	–
DU-4475	102	–	103	107	–	–
HCC1143	–	96	–	–	107	99.1
HCC1599	–	108	–	–	112	100
HCC1937	–	100	–	–	74	105
HDQ-P1	89.1	–	106	114	–	–
Hs578T	–	127	–	–	102	105
MDA-MB-231	–	107	–	–	97.2	104
MDA-MB-436	–	110	–	–	80.5	114
MFM-223	–	96	–	–	90.2	103

CC(=O)O[C@@]12CO[C@@H]1C[C@H](O)[C@@]1(C)C(=O)[C@H](O)C3=C(C)[C@@H](OC(=O)[C@H](O)[C@@H](NC(=O)OC(C)(C)C)c4ccccc4)C[C@@](O)([C@@H](OC(=O)c4ccccc4)[C@H]21)C3(C)C [Docetaxel]
Conditions	normalised viability
BT-474, 1 nM	91.6% and 101%
BT-474, 100 nM	21.4% and 27.7%
BT-474, 1000 nM	16.9% and 28.5%
CAL-85-1, 0.3 nM	96.7% and 101%
CAL-85-1, 3 nM	56% and 56.9%
CAL-85-1, 10 nM	36.1% and 35.2%
CAL-148, 0.3 nM	97.3% and 89.1%
CAL-148, 3 nM	41.6% and 29.8%
CAL-148, 10 nM	21.9% and 19.9%
DU-4475, 0.3 nM	116% and 110%
DU-4475, 3 nM	50.8% and 35.1%
DU-4475, 10 nM	34.5% and 35.6%
HCC1143, 1 nM	79.8% and 66.2%
HCC1143, 100 nM	34.7% and 31.3%
HCC1143, 1000 nM	35.3% and 33%
HCC1599, 1 nM	134% and 119%
HCC1599, 100 nM	101% and 94.3%
HCC1599, 1000 nM	104% and 99.7%
HCC1937, 1 nM	53.9% and 76.2%
HCC1937, 100 nM	20.5% and 17.5%
HCC1937, 1000 nM	27.5% and 19%
HDQ-P1, 0.3 nM	86.7% and 84.7%
HDQ-P1, 3 nM	58.6% and 72.4%
Hs578T, 1 nM	69% and 63.9%
Hs578T, 100 nM	11.7% and 12.4%
Hs578T, 1000 nM	12.3% and 9.74%
MDA-MB-231, 1 nM	83% and 72.7%
MDA-MB-231, 100 nM	17% and 21.6%
MDA-MB-231, 1000 nM	21.6% and 21%
MDA-MB-436, 1 nM	85% and 80.1%
MDA-MB-436, 100 nM	19.3% and 34%
MDA-MB-436, 1000 nM	38.6% and 43.8%
MFM-223, 1 nM	84.9% and 81.8%
MFM-223, 100 nM	43.6% and 47.1%
MFM-223, 1000 nM	47.8% and 41.5%

C[C@]12CC[C@@H]3c4ccc(OC(=O)N(CCCl)CCCl)cc4CC[C@H]3[C@@H]1CC[C@@H]2O [Estramustine]
normalised viability [%]
Conditions	0.297 nM	0.99 nM	2.97 nM	9.9 nM	99 nM	990 nM
BT-474	–	116	–	–	115	116
CAL-85-1	100	–	90.9	101	–	–
CAL-148	118	–	101	106	–	–
DU-4475	93.6	–	99.3	108	–	–
HCC1143	–	109	–	–	106	114
HCC1599	–	89	–	–	76.9	98.3
HCC1937	–	88.9	–	–	75	92.2
HDQ-P1	107	–	106	109	–	–
Hs578T	–	113	–	–	100	98
MDA-MB-231	–	100	–	–	109	119
MDA-MB-436	–	95	–	–	96.1	99.4
MFM-223	–	101	–	–	98.3	103
